We go through 2 molecules from paper PMC10281575, “PfCRT mutations conferring piperaquine resistance in falciparum malaria shape the kinetics of quinoline drug binding and transport” (PLOS Pathogens, 2023).

Molecules are shown by their SMILES. Substitutions are numbered along the chain they refer to. Values joined by “and” are separate entries in the source; they are usually repeats but may differ in a detail not shown here. Equal entries are not always repeated.

The target in one assay is T1, PfCRT^Dd2_H97Y (Plasmodium falciparum, UniProt Q8IBZ9, A220S/H97Y/I356T/K76T/M74I/N326S/N75E/Q271E/R371I).
T1 construct: expressed in transfected cells; host or cells: Xenopus laevis oocytes injected with in vitro transcribed RNA (pSP64T)
T1 sequence (Q8IBZ9 1-424 M74I/N75E/K76T/H97Y/A220S/Q271E/N326S/I356T/R371I): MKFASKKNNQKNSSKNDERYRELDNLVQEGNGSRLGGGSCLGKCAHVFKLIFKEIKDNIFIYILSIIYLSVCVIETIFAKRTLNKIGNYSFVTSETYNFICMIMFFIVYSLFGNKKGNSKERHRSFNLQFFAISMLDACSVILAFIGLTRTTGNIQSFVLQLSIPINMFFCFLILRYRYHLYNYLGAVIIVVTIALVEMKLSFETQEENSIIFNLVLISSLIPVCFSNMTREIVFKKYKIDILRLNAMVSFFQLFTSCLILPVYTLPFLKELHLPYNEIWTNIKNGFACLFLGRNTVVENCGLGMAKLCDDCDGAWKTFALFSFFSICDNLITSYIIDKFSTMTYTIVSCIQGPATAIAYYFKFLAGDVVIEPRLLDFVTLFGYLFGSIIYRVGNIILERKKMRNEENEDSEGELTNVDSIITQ
The assay can be described thus: Radiolabeled drug uptake in X. laevis oocytes expressing PfCRT^Dd2_H97Y. The assay is classed as cell-based. The following applies: for Vmax, maximal velocity of drug transport / Km: Michaelis-Menten fit, 10-500 μM drug, pH 6; for Km: read-out: KM, Michaelis constant. An excerpt:
(§1) A codon-optimized coding sequence of the Dd2 isoform of PfCRT (PfCRT^Dd2) was subcloned into the pSP64T expression vector [21]. To generate the necessary mutations to introduce the amino acid substitutions H97Y, F145I, M343L or G353V into the pfcrt sequence, the overlap extension method was used. A region from the 5’-untranslated Xenopus β-globin sequence to the respective 3’ region, containing the full length pfcrt coding sequence, was amplified using the following primer pairs: for the H97Y mutation, numbers 1/4 and 2/3; for the F145I mutation, numbers 1/6 and 2/5; for the M343L mutation, numbers 1/8 and 2/7; and for the G353V mutation, numbers 1/10 and 2/9 (for primers, see S2 Table). Both PCR products were used as template for amplification of the final product using primers number 1/2. The resulting fragment was cloned into the pSP64T expression vector, and the presence of the desired mutation was confirmed by sequencing.
(§2) Adult female X. laevis frogs (purchased from NASCO) were anesthetized by submersion in a solution of 0.3% (w/v) 3-amino benzoate methanesulfonate for 15 min. Sections of the ovary were surgically removed and placed in Ca^2+-free ND96 buffer supplemented with 0.1% collagenase D (w/v; Roche), 0.5% BSA (w/v) and 9 mM Na2HPO4 at 18°C for 14–16 h while gently shaking. The oocytes were then washed several times with ND96 buffer (5 mM HEPES, pH 7.5, 96 mM NaCl, 2 mM KCl, 1.8 mM CaCl2, 1 mM MgCl2), supplemented with […] gentamycin. Healthy-looking stage V-VI oocytes were manually selected and randomly grouped for injection. A codon-optimized coding sequence of PfCRT was subcloned into the pSP64T expression vector and subsequently linearized using the restriction endonuclease BamHI or SalI (New England Biolabs GmbH). RNA for injection was transcribed in vitro using the mMESSAGE mMACHINE SP6 Transcription kit (Ambion), diluted with nuclease-free water to a final concentration of 0.6 μg/μL and stored at -80°C. RNA was injected using precision-bore glass capillary tubes (3.5-inch glass capillaries; Drummond Scientific Co.), which were pulled on a vertical puller (P-87 Flaming/Brown micropipette puller, Sutter Instrument Co.) and graduated. The micropipettes were connected to a microinjector (Nanoject II Auto-Nanoliter Injector, Drummond Scientific Co.). Injection was conducted under stereomicroscopic control. 50 nL of nuclease-free water alone (control oocytes) or 50 nL of nuclease-free water containing 30 ng of RNA was injected per oocyte. Injected oocytes were kept for 72 h at 18°C in ND96 buffer with two daily buffer changes before being used for further experiments.
(§3) Drug transport assays were performed as previously described. Briefly, measurements of radiolabeled drug uptake were made over 1 h, unless otherwise specified. […] Where specified, one or more unlabeled drugs were also present at the indicated concentrations. […] The uptake assays were terminated by removing the oocytes from the reaction medium and washing them three times with 2 mL of ice-cold ND96 buffer. Each oocyte was transferred to a separate scintillation vial and lysed by the addition of 200 μL of a 5% SDS solution. The radioactivity in the sample was measured using a liquid scintillation analyser Tri-Carb 4910 TR (PerkinElmer). Water-injected oocytes were analyzed in parallel as a negative control. The buffer from each condition was measured in duplicate in parallel to each experiment to transform counts per minute into pmol of drug. Drug uptake attributable to PfCRT was determined by subtracting the background uptake from water-injected oocytes from that of PfCRT-expressing oocytes. In all cases, at least three independent experiments were performed on oocytes from different frogs, and for each condition in an experiment, measurements were made from 10 oocytes per treatment.

A further assay concerns the target T2, PfCRT^Dd2_M343L (Plasmodium falciparum, UniProt Q8IBZ9, A220S/I356T/K76T/M343L/M74I/N326S/N75E/Q271E/R371I).
T2 construct: expressed in transfected cells; host or cells: Xenopus laevis oocytes injected with in vitro transcribed RNA (pSP64T)
T2 sequence (Q8IBZ9 1-424 M74I/N75E/K76T/A220S/Q271E/N326S/M343L/I356T/R371I): T1 sequence (Q8IBZ9 1-424 M74I/N75E/K76T/H97Y/A220S/Q271E/N326S/I356T/R371I) with Y97H, M343L
The assay can be described thus: Radiolabeled drug uptake in X. laevis oocytes expressing PfCRT^Dd2_M343L. The assay is classed as cell-based.
Text: as §1, §2, §3

Take `CCN(CC)CCCC(C)Nc1ccnc2cc(Cl)ccc12` (centres unmarked) [CQ, chloroquine]: the “PfCRTDd2_H97Y-mediated CQ uptake at 10 µM CQ” value at PfCRT^Dd2_H97Y (10 µM CQ, single replicates) is 0.94 pmol oocyte-1 h-1 and 1.60 pmol oocyte-1 h-1 and 1.36 pmol oocyte-1 h-1. Also, the “PfCRTDd2_H97Y-mediated CQ uptake at 50 µM CQ” value on PfCRT^Dd2_H97Y (50 µM CQ, single replicates) was 8.24 pmol oocyte-1 h-1 and 3.56 pmol oocyte-1 h-1 and 5.41 pmol oocyte-1 h-1 and 4.92 pmol oocyte-1 h-1 and 5.15 pmol oocyte-1 h-1. Moreover, at PfCRT^Dd2_H97Y (100 µM CQ, single replicates), the “PfCRTDd2_H97Y-mediated CQ uptake at 100 µM CQ” value was 9.39 pmol oocyte-1 h-1 and 7.90 pmol oocyte-1 h-1 and 6.68 pmol oocyte-1 h-1. In addition, at PfCRT^Dd2_H97Y (300 µM CQ, single replicates), the “PfCRTDd2_H97Y-mediated CQ uptake at 300 µM CQ” value was 13.78 pmol oocyte-1 h-1 and 16.15 pmol oocyte-1 h-1 and 14.38 pmol oocyte-1 h-1. The “PfCRTDd2_H97Y-mediated CQ uptake at 500 µM CQ” value at PfCRT^Dd2_H97Y (500 µM CQ, single replicates) is 17.49 pmol oocyte-1 h-1 and 19.24 pmol oocyte-1 h-1 and 15.35 pmol oocyte-1 h-1. In addition, the “Vmax, maximal velocity of drug transport” value was determined as 24 ± 1 pmol oocyte^-1 h^-1 on PfCRT^Dd2_H97Y and 31 ± 2 pmol oocyte^-1 h^-1 on PfCRT^Dd2_M343L (Michaelis-Menten fit, 10-500 μM drug, pH 6). The Km (usually the concentration of substrate that gives half-maximal velocity) at PfCRT^Dd2_H97Y came out at 184 ± 16 µM. In addition, the “PfCRTDd2_M343L-mediated CQ uptake at 10 µM CQ” value at PfCRT^Dd2_M343L (10 µM CQ, single replicates) was 1.16 pmol oocyte-1 h-1 and 0.62 pmol oocyte-1 h-1 and 0.22 pmol oocyte-1 h-1. Also, the “PfCRTDd2_M343L-mediated CQ uptake at 50 µM CQ” value on PfCRT^Dd2_M343L (50 µM CQ, single replicates) was 2.13 pmol oocyte-1 h-1 and 3.20 pmol oocyte-1 h-1 and 2.38 pmol oocyte-1 h-1 and 2.37 pmol oocyte-1 h-1. The “PfCRTDd2_M343L-mediated CQ uptake at 100 µM CQ” value on PfCRT^Dd2_M343L (100 µM CQ, single replicates) is 5.08 pmol oocyte-1 h-1 and 4.43 pmol oocyte-1 h-1 and 5.13 pmol oocyte-1 h-1. Besides, the “PfCRTDd2_M343L-mediated CQ uptake at 300 µM CQ” value on PfCRT^Dd2_M343L (300 µM CQ, single replicates) is 10.45 pmol oocyte-1 h-1 and 11.10 pmol oocyte-1 h-1 and 13.47 pmol oocyte-1 h-1. Besides, on PfCRT^Dd2_M343L (500 µM CQ, single replicates), the “PfCRTDd2_M343L-mediated CQ uptake at 500 µM CQ” value was 14.93 pmol oocyte-1 h-1 and 14.77 pmol oocyte-1 h-1 and 15.77 pmol oocyte-1 h-1.

Consider `Clc1ccc2c(N3CCN(CCCN4CCN(c5ccnc6cc(Cl)ccc56)CC4)CC3)ccnc2c1` [PPQ, piperaquine], for which the “PfCRTDd2_H97Y-mediated PPQ uptake at 10 µM PPQ” value on PfCRT^Dd2_H97Y (10 µM PPQ, single replicates) was 12.86 pmol oocyte-1 h-1 and 5.01 pmol oocyte-1 h-1 and 5.38 pmol oocyte-1 h-1. In addition, the “PfCRTDd2_H97Y-mediated PPQ uptake at 50 µM PPQ” value on PfCRT^Dd2_H97Y (50 µM PPQ, single replicates) is 31.25 pmol oocyte-1 h-1 and 73.07 pmol oocyte-1 h-1 and 57.01 pmol oocyte-1 h-1 and 61.85 pmol oocyte-1 h-1 and 37.57 pmol oocyte-1 h-1 and 17.78 pmol oocyte-1 h-1. Also, at PfCRT^Dd2_H97Y (100 µM PPQ, single replicates), the “PfCRTDd2_H97Y-mediated PPQ uptake at 100 µM PPQ” value is 97.03 pmol oocyte-1 h-1 and 61.02 pmol oocyte-1 h-1 and 41.93 pmol oocyte-1 h-1 and 45.11 pmol oocyte-1 h-1. For the same molecule, the “PfCRTDd2_H97Y-mediated PPQ uptake at 300 µM PPQ” value at PfCRT^Dd2_H97Y (300 µM PPQ, single replicates) is 103.79 pmol oocyte-1 h-1 and 76.95 pmol oocyte-1 h-1 and 76.45 pmol oocyte-1 h-1 and 130.46 pmol oocyte-1 h-1. Further, the “PfCRTDd2_H97Y-mediated PPQ uptake at 500 µM PPQ” value on PfCRT^Dd2_H97Y (500 µM PPQ, single replicates) is 133.65 pmol oocyte-1 h-1 and 96.27 pmol oocyte-1 h-1 and 74.35 pmol oocyte-1 h-1 and 131.71 pmol oocyte-1 h-1. Moreover, on PfCRT^Dd2_H97Y, the “Vmax, maximal velocity of drug transport” value is 131 ± 6 pmol oocyte^-1 h^-1 and 183.94 pmol oocyte^-1 h^-1; the Km was determined as 106 ± 14 µM. For the same molecule, the “PfCRTDd2_M343L-mediated PPQ uptake at 10 µM PPQ” value at PfCRT^Dd2_M343L (10 µM PPQ, single replicates) is 13.08 pmol oocyte-1 h-1 and 6.84 pmol oocyte-1 h-1 and 2.69 pmol oocyte-1 h-1. The “PfCRTDd2_M343L-mediated PPQ uptake at 50 µM PPQ” value at PfCRT^Dd2_M343L (50 µM PPQ, single replicates) was 84.22 pmol oocyte-1 h-1 and 103.15 pmol oocyte-1 h-1 and 60.92 pmol oocyte-1 h-1 and 65.48 pmol oocyte-1 h-1 and 62.52 pmol oocyte-1 h-1 and 18.03 pmol oocyte-1 h-1. Also, on PfCRT^Dd2_M343L (100 µM PPQ, single replicates), the “PfCRTDd2_M343L-mediated PPQ uptake at 100 µM PPQ” value is 130.36 pmol oocyte-1 h-1 and 98.93 pmol oocyte-1 h-1 and 50.24 pmol oocyte-1 h-1. In addition, the “PfCRTDd2_M343L-mediated PPQ uptake at 300 µM PPQ” value on PfCRT^Dd2_M343L (300 µM PPQ, single replicates) was 154.89 pmol oocyte-1 h-1 and 102.01 pmol oocyte-1 h-1 and 116.02 pmol oocyte-1 h-1. Besides, at PfCRT^Dd2_M343L (500 µM PPQ, single replicates), the “PfCRTDd2_M343L-mediated PPQ uptake at 500 µM PPQ” value was 164.14 pmol oocyte-1 h-1 and 130.73 pmol oocyte-1 h-1 and 130.95 pmol oocyte-1 h-1. For the same molecule, the Km at PfCRT^Dd2_M343L (Michaelis-Menten fit, 10-500 μM drug, pH 6, read-out: KM, Michaelis constant) was found to be 80 ± 16 µM.
